# Laboratory results reported in BindingDB's records for doi:10.1016/S0960-894X(96)00274-0 (1996).
# pIC50: −log10 of the molar value.
# Assays:
# [1] = Compound was tested for Inhibition of 9 (1 nM) binding to Opioid receptor delta 1 from bovine striatal Membranes
# [2] = Compound was tested for Inhibition of [3H]-DPDPE (0.2 nM) binding to Opioid receptor from bovine striatal Membranes
Compound,pIC50 [1],pIC50 [2]
"C=C(Cl)C(=O)N[C@@]12CCC(=O)[C@@H]3Oc4c(O)ccc5c4C31CCN(CC1CC1)C2C5 (stereo partly drawn) [1N-[4-cyclopropylmethyl-10-hydroxy-14-oxo-(13R,17S)-12-oxa-4-azapentacyclo[9.6.1.01,13.05,17.07,18]octadeca-7(18),8,10-trien-17-yl]-2-chloroacrylamide]",6.75,6.30
"C=C(Cl)C(=O)N[C@@H]1CCC2C3Cc4ccc(O)c5c4C2(CCN3CC2CC2)[C@H]1O5 (stereo partly drawn) [1N-[4-cyclopropylmethyl-10-hydroxy-(13R,14R)-12-oxa-4-azapentacyclo[9.6.1.01,13.05,17.07,18]octadeca-7(18),8,10-trien-14-yl]-2-chloroacrylamide]",9.28,8.82
"C=C(Cl)C(=O)N[C@@]12CCC(=O)[C@@H]3Oc4c(O)ccc5c4C31CCN(C)C2C5 (stereo partly drawn) [1N-[10-hydroxy-4-methyl-14-oxo-(13R,17S)-12-oxa-4-azapentacyclo[9.6.1.01,13.05,17.07,18]octadeca-7(18),8,10-trien-17-yl]-2-chloroacrylamide]",6.75,6.74
"C=C(Cl)C(=O)N[C@@H]1CCC2C3Cc4ccc(O)c5c4C2(CCN3C)[C@H]1O5 (stereo partly drawn) [1N-[10-hydroxy-4-methyl-(13R,14R)-12-oxa-4-azapentacyclo[9.6.1.01,13.05,17.07,18]octadeca-7(18),8,10-trien-14-yl]-2-chloroacrylamide]",7.35,7.59
